According to patent US20100216706A1, “Ghrelin Protects Substantia Nigra Dopamine Neurons” (priority 2007, published 2010):
No end group written: not given here. *: point of attachment. Octanoyl = CCCCCCCC(=O)*

Legend:
[1] = system: SNpc DA neurons mitochondria; assay: Mitochondria number in SNpc DA perikarya (electron microscopy); assay type: in vivo, mice
Text: Mitochondria number: Animals were perfused and their brains were processed for TH immunolabeling for electron microscopic examination. Ultrathin sections were cut on a Leica ultra microtome, collected on Formvar-coated single-slot grids and analyzed with a Tecnai 12 Biotwin (FEI Company) electron microscope. Mitochondria were counted blindly from randomly selected sections, and Scion Image was used to normalize cytoplasmic area so that mitochondrial number per cell is expressed in square micrometers.
Given that ghrelin induces mitochondrial respiration as described above, an experiment was performed to test whether ghrelin could also alter mitochondrial number in the SNpc DA perikarya. […]
Therefore, an experiment was performed to test whether ghrelin increases mitochondrial number in the SNpc dopamine neurons. […] In line with this, UCP2 ko mice show reduced mitochondrial number in the SNpc dopamine neurons, which predisposes them to environmental toxins (Andrews et al., 2005, J Neurosci 25:184-191). Furthermore, mitochondrial dysfunction lies at the very heart of Parkinson's disease (Lin et al., 2006, Nature 443:787-795).

striatal dopamine [2] = assay: Striatal DA concentration after ghrelin injection (HPLC); assay type: in vivo, mice
Procedure: (§1) The samples were subsequently thawed in 0.4 ml of chilled 0.1 M perchloric acid and sonicated. Aliquots were taken for protein quantification using a spectrophotometric assay. Other aliquots were centrifuged, and DA levels were measured in supernatants by high pressure liquid chromatography (HPLC) with electrochemical detection. Concentrations of DA and metabolites were expressed as ng/mg protein (mean±SEM).
To further examine the effect of ghrelin on the nigrostriatal system, striatal DA concentration after ghrelin injection in wild-type mice was measured using HPLC.

striatal dopamine [3] = assay: Striatal dopamine after MPTP (HPLC); assay type: in vivo, mice; details: ghrelin 14 days
Procedure: (§2) Control animals were given saline. Animals were sacrificed and perfused 7 days later and processed for immunohistochemistry or HPLC for dopamine (DA) and metabolites. n=8-10 for ghrelin wt and ko mice; n=6 for GHSR wt/wt, homo/wt and homo/TG.
as §1
(§3) The observation that ghrelin promotes SNpc DA neuronal function, mitochondrial respiration and number raises the possibility that ghrelin may protect nigrostriatal dopaminergic system during increased cellular stress. […] In brief, mice were treated with daily IP injections of exogenous ghrelin (10 nmols) or saline for 14 days. Mice were injected immediately before the dark phase, and food was removed overnight since calorie intake and postprandial increases in glucose and insulin can suppress the action of ghrelin (Cummings et al., 2006, Physiol Behav 89: 71-84). Both ghrelin and saline treated mice were given 3 grams of standard chow the following morning at 9 am. […] After the subsequent 7 days of treatment (saline or ghrelin), TH immunoreactive neurons were counted blind by two independent researchers using the non-biased optical fractionator on the stereology program, Stereoinvestigator.

[4] = system: midbrain (SN-VTA) mitochondria; assay: Mitochondrial respiration in midbrain of ghrelin-treated rats (Clark-type oxygen electrode); assay type: in vivo; details: 30 nmol IP, 3 hours
Procedure: Mitochondrial respiration: The ability of ghrelin to promote mitochondrial respiration was examined in mitochondria isolated from midbrain of ghrelin-treated rats (30 nmol) three hours after injection. Rats were used as the mitochondrial yield after isolation is much higher than the yield from mice. Mitochondrial respiration was also examined in the pooled midbrain of UCP2 ko and wt mice (3 pooled brains), 3 hours after ghrelin injection (IP 30 nmol).
Mitochondria were pooled from the SN-VTA (4 animals=1, total n=4) and isolated by differential centrifugation. Because of the size of the tissue dissected, it was impossible to solely isolate only the SNc, and as such the results are reported as SN-VTA. Briefly, the SN-VTA was rapidly dissected and homogenized in isolation buffer (215 mM Mannitol, 75 mM sucrose, 0.1% fatty acid free BSA, 20 mM Hepes, 1 mM EGTA, pH adjusted to 7.2 with KOH). The homogenate was spun at 1300×g for 3 minutes. The supernatant was removed, and the pellet was resuspended with isolation buffer and spun again at 1300×g for 3 minutes. The 2 sets of supernatant from each sample were topped off with isolation buffer and spun at 13000×g for 10 minutes. The supernatant was discarded, and this step was repeated. After this second spin at 13000×g, the supernatant was discarded, and the pellets were resuspended with isolation buffer without EGTA and spun at 10000×g for 10 minutes. The final mitochondrial pellet was resuspended with 50 μl of isolation buffer without EGTA. Protein concentrations were determined with a BCA protein assay kit (Pierce, Rockford, Ill., USA).
Mitochondrial respirations were assessed using a Clark-type oxygen electrode (Hansatech Instruments, Norfolk, England) at 37° C. with pyruvate and malate (5 mM and 2.5 mM) as oxidative substrates in respiration buffer (215 mM Mannitol, 75 mM sucrose, 0.1% fatty acid free BSA, 20 mM Hepes, 2 mM MgC1, 2.5 mM KH2PO4, pH adjusted to 7.2 with KOH). Following the addition of ADP and oligomycin, UCP-mediated proton conductance was measured as increased fatty acid-induced respiration (Echtay et al., 2002), which was then compared to state 4 respiration induced by oligomycin, an inhibitor of H^+ transporting ATP synthase.
To determine whether ghrelin influences mitochondrial metabolism in the SNpc, mitochondrial respiration was measured in isolated […] from the midbrain of ghrelin-treated wild-type rats.
Ghrelin was administered intraperitoneally (30 nmol) and food was removed for the three hours injection period prior to sacrifice as ingested calorie load and the postprandial increase in glucose and insulin are known to reduce ghrelin effectiveness (Callahan et al., 2004, J Clin Endocrinol Metab 89: 1319-24; Cummings et al., 2006, Physiol Behav 89: 71-84). […] Subsequent blocking of the ATP synthase with oligomycin produced greater basal uncoupling after ghrelin (saline 31.4±1.4 vs ghrelin 50.4±1.5, p<0.0001; FIG. 4A). Palmitate (free fatty-acid) induced respiration was also elevated in ghrelin-treated rats (saline 125.0±3.8 vs ghrelin 185.3±9.3, p<0.001; FIG. 4A). Finally, ghrelin increased FCCP-driven respiration, an index of total uncoupling capacity of the inner mitochondrial membrane (FIG. 4A).

TH neurons in the SNpc = assay: MPTP-induced TH cell loss in the SNpc (stereology, optical fractionator); assay type: in vivo, mice
Text: as §2
TH cell quantification: Free floating sections were stained with TH (1:5000, Chemicon International) and visualized with DAB using standard procedures.
Unbiased stereology methods were used to quantify TH immunoreactive cells in the SNpc. Cells were visualized by a Zeiss microscope and relayed via a MicroFibre digital camera (www(dot)optronics(dot)com) to a computer where they were counted using the optical fractionator with the sophisticated Stereolnvestigator software (MicroBrightField, Williston, Vt., USA). Every fourth section was collected through the SNpc, and TH cells were counted in grids randomly positioned by the software in the outlined counting area through all optical planes, thus creating a 3 dimensional counting area.
as §3

## ghrelin (GSS(Octanoyl)FLSPEHQRVQQRKESKKPPAKLQPR; listed as Homo sapiens) [28 amino acid acyl-peptide esterified with octanoic acid on Ser3; endogenous ligand of GHSR]
[1]; mice, three hours after ghrelin injection, saline 0.46±0.03
  Mitochondrial number in DA perikarya of the SNpc: 0.62±0.03 μm^2
[1]; two hours after ghrelin injection, saline 0.45±0.03
  Mitochondrial number in SNpc dopamine neurons, UCP2 ko mice: 0.39±0.03 μm^2
[1]; two hours after ghrelin injection, saline 0.46±0.03
  Mitochondrial number in SNpc dopamine neurons, UCP2 wt mice: 0.62±0.03 μm^2
Striatal dopamine [2]; ghsr−/− mice
  Effect on DA concentration in ghsr−/− mice: no effect
Striatal dopamine [2]; wild-type mice after ghrelin injection
  DA concentration in ventral striata: 126.5±7.26 ng/mg protein
Striatal dopamine [2]; wild-type mice after ghrelin injection, saline 119.4±9.6
  DA concentration in dorsal striatum: 153±4.6 ng/mg protein
Striatal dopamine [3]; MPTP on day 7
  Loss of striatal dopamine vs controls, ghr/MPTP: 45%
  Striatal dopamine concentration, ghr/MPTP: 78.4±8.8 ng/mg protein
Striatal dopamine [3]; saline on day 7, sal/sal 147.4±10.2
  Striatal dopamine concentration, ghr/sal: 141.8±7.5 ng/mg protein
[4]
  FCCP-driven respiration: increased
[4]; saline 31.4±1.4
  Basal uncoupling after oligomycin: 50.4±1.5
[4]; saline 33.5±2.1
  Mitochondrial respiration after pyruvate and malate: 49.5±1.9
[4]; saline 125.0±3.8
  Palmitate induced respiration: 185.3±9.3
[4]; saline 128.3±7.5
  Mitochondrial respiration after ADP: 185.2±17.7
TH neurons in the SNpc; ghrelin 10 nmols IP daily 14 days, MPTP 30 mg/kg IP on day 7
  Total TH neurons in SNpc, ghr/MPTP: 7836±285
TH neurons in the SNpc; ghrelin 10 nmols IP daily 14 days, saline on day 7, sal/sal 11283±342
  Total TH neurons in SNpc, ghr/sal: 11616±318
TH neurons in the SNpc; ghrelin 14 days, MPTP on day 7
  Dopamine cell loss compared to control mice, ghrelin treatment: 33%
  SNpc volume, ghr/MPTP: not significantly different
TH neurons in the SNpc; ghrelin 14 days, saline on day 7
  SNpc volume, ghr/sal vs sal/sal: not significantly different
